Test results from US7067500B2, “Betaines as adjuvants to susceptibility testing and antimicrobial therapy” (priority 1997, dated 2006).

How the values were obtained:
[1] = system: M. tuberculosis isolates ATCC 27294, 571/573-BAL, 061-TBR, 52–96-BOL, and 57–96-BOL; test: Antibiotic screen with additional antibiotics in the presence and absence of CB-18; assay type: cell-based, Mycobacterium tuberculosis; settings: ceftazidime alone (absence of PANTA) at 16 μg/ml final
Procedure: The experimental design of FIG. 16 was also used to examine the breadth of the CB-18 effect with respect to other, non-β-lactam antibiotics. In these experiments antibiotics (Sigma, St. Louis, Mo.) were manufactured as stock solutions in water or buffer and then diluted with reconstitution fluid and added to the culture bottles prior to inoculation. Nystatin (100 μg/ml final), polymixin B (300 units final), erthromycin (4 μg/ml final), oleandomycin (2 μg/ml final), penicillin G (8 μg/ml final), nalidixic acid (30 μg/ml final), lincomycin (2 μg/ml final), ceftriaxone (32 μg/ml final), and ceftazidime (16 μg/ml final) (ceftazidime was manufactured in 10% sodium bicarbonate) were tested on ATCC 27294, 571/573-BAL, 061-TBR, 52–96-BOL, and 57–96-BOL. All experiments used R.F. and P-caz as controls, and all bottles wherein CB-18 was added used a final concentration of 17 μg/ml. FIG. 28 presents the results of the 571/573-BAL isolate with erythromycin and ceftriaxone. FIG. 29 presents the results of the 061-TBR isolate with polymyxin B, oleandomycin, lincomycin, naldixic acid, penicillin G, and ceftriaxone. FIG. 30 presents the results of the 57–96-BOL isolate with naldixic acid, penicillin G, ceftazidime and ceftriaxone.

gram negative bacteria = test: Antibiotic sensitivities of BACTEC 12B/PANTA contaminants (MicroScan panels); assay type: cell-based; settings: ceftazidime at 8 μg/ml; contaminants of CB-18 processed specimens on 12B/PANTA
Source text: Preliminary studies designed to assess the nature of contaminants breaking through the BACTEC 12B liquid media supplemented with PANTA used discarded respiratory specimens (n=277) from Quest Diagnostics—Baltimore. (NOTE: the BACTEC 12B liquid culture system is one of the standard methods in the art for culturing mycobacteria, and PANTA is an antimicobial supplement containing polymyxin B, azlocillin, nalidixic acid, trimethoprim, and amphotericin B: this culture system is referred to herein as “12B/PANTA” (Becton Dickinson, Cockeysville, Md.)) Specimens were collected and processed with CB-18 according to the procedure above. Approximately 400–500 μl of each sediment was planted on 12B/PANTA. All contaminants were identified by morphology and/or gram stain and then differentiated as either oxidase/catalase, positive or negative. Contaminants were then speciated, and antibiotic sensitivities determined, using MicroScan® panels (Dade, West Sacramento, Calif.).

SMILES: CC(C)(O/N=C(\C(=O)N[C@@H]1C(=O)N2C(C(=O)[O-])=C(C[n+]3ccccc3)CS[C@H]12)c1csc(N)n1)C(=O)O [ceftazidime]
- effect on isolates relative to other antibiotics tested [1]: one of the least innocuous compounds
- gram negative bacteria sensitive to ceftazidime (gram negative bacteria): 40 of the 48
